Usually Km stands for the substrate concentration at which the rate is half of its maximum.

Where two headings read alike, the source gives them in different places.

The target of experiment [1] is sodium iodide symporter (NIS) (Rattus norvegicus, UniProt Q63008). The following applies: read-out: Km of NIS transport; Xenopus oocytes (Eskandari 1997); cited from earlier work.
For experiment [2], the system named is HeLa cells. The experiment can be described thus: Seahorse oxygen and oxygen consumption rate measurement in intact cells. The following applies: 1% ambient oxygen. The experiment is classed as cell-based, human.
Experiment [3] concerns NdCld. Particulars: human digitonin-permeabilized HeLa cell extract expressing NdCld, initial rates of oxygen evolution. The method, then: HeLa cells were pelleted at 800×g for 3 min, washed with PBS, pelleted again, and then resuspended in assay buffer (125 mM KCl, 2 mM K2HPO4, 1 mM MgCl2, 2 0 mM HEPES pH 7.2, 5 mM glutamate, 5 mM malate, and 0.01% digitonin) at a concentration of 5×10^6 cells/ml. Oxygen production was measured using a FireSting optical oxygen meter connected to a sensor vial. One ml of cell solution (5×10^6 cells) was used for each measurement. Measurements were performed under ambient air conditions with stirring of the cell solution. […] The initial rates were determined from the resulting oxygen traces using up to 20 seconds of the linear portion of the trace via the ICEKAT web server (Olp, 2020). The means of 3 replicate rates were plotted against the chlorite concentrations to estimate the KM.
We next characterized the activity of this protein in human cell extracts. […] Doses spanning 10 uM to 1 mM were used, as previous studies have shown that higher chlorite concentrations lead to inactivation of the enzyme (Hofbauer 2014). We monitored oxygen evolution using an optical probe in a well-stirred, air saturated cuvette.

The next experiment has as its system yeast. The following applies: read-out: dose required to achieve 50% growth inhibition; yeast (Kwolek-Mirek 2011); cited from earlier work.
The test system of experiment [4] is HeLa cells. Particulars: read-out: concentration giving 50% decrease in viability; HeLa cells (GFP), treated for 3 days, FIG. 3A.
Experimental: Cell counts and viability were assessed after 3 days of growth using a Vi-Cell BLU Cell Viability Analyzer. Shown is the mean+/−s.d. of triplicate measurements.
HeLa cells were trypsinized, counted, and prepared at 10^5 cells/ml in normal growth media. […] Cells were seeded in 24-well plates, with triplicate wells for each condition. 500 ul of each 2× chlorite/media preparation was first added to the plate. 500 ul of cell suspension (5×10^4 cells) was then added to each well. The plate was gently mixed, and cells were grown for 3 days in a 37° C./5% CO2 incubator. After 3 days, cells were washed briefly with 500 ul of PBS, trypsinized with 250 ul TrypLE Express, and resuspended with 750 ul of normal growth media to 1 ml total volume. In wells containing a majority of visibly dead, floating cells, cells were resuspended by vigorously pipetting up and down rather than by trypsinization. 200 ul of each cell suspension was then quantified using a Vi-Cell BLU Cell Viability Analyzer (Beckman Coulter).
The subject of experiment [5] is NdCld. The following applies: purified bacterial expressed NdCld (Kostan 2010; Hofbauer 2014); cited from earlier work.
Experiment [6] relates to NdCld. The following applies: NdCld in E. coli extracts (Maixner 2008); cited from earlier work.

NdCld, sequence (as listed by the source): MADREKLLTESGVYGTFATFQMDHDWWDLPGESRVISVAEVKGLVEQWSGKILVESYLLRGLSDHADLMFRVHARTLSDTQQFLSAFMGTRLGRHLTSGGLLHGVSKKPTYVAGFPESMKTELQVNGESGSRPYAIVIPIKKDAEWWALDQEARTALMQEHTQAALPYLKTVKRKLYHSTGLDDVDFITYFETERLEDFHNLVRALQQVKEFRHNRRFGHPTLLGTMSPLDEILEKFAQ
sodium iodide symporter (NIS), sequence (Q63008 whole entry): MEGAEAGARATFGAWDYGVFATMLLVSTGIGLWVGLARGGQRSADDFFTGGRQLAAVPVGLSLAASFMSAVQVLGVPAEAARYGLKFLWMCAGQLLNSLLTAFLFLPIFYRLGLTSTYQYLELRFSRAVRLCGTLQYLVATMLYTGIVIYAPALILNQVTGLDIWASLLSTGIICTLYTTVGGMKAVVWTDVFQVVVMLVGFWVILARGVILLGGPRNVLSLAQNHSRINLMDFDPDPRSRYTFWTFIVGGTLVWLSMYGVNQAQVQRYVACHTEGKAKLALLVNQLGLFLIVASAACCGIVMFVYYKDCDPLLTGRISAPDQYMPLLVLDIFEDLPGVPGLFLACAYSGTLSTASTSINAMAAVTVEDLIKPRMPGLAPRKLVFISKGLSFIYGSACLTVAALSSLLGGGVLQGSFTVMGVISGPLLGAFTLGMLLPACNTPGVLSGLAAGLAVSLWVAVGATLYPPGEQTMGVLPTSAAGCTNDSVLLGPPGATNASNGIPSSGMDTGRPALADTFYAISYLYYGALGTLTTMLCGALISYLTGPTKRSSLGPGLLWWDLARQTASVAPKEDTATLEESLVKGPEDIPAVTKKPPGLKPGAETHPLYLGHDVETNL

For `[O-][Cl+2]([O-])O` [chlorate], the Km in experiment [1] was 277 µM.

Turning to sodium chlorite, the “oxygen generation (decline in apparent OCR)” value with HeLa cells [2] (HeLa cells co-expressing NdCld and NIS, piericidin+antimycin, dose response beginning with 1 mM chlorite) is listed as “robust oxygen production”. The “oxygen evolution in intact cells” value with HeLa cells [2] (HeLa cells expressing FLAG-NdCld+NIS (not mCherry), 500 uM or 1 mM chlorite) is given as “observed oxygen evolution”. In the experiment on NdCld [3], the Vmax is given as 0.37 umoles/second/100,000 cells. Besides, the Km in the experiment with NdCld [3] (read-out: Km for chlorite) was 560 µM; in the experiment with NdCld [5], 58 to 69 µM; with NdCld [6], 15.8 mM. Besides, the IC50 is 4 mM in the experiment on yeast and approximately 2 mM in the experiment on HeLa cells [4].

These data come from US20250297233A1, “GENETICALLY ENCODED SYSTEMS FOR GENERATING OXYGEN IN LIVING EUKARYOTIC CELLS” (The General Hospital Corporation, priority 2022, published 2025).
